This note sets out measurements from patent publication US8828988B2 (Tetraphase Pharmaceuticals, Inc., priority 2009, dated 2014).

Assay [1] deals with E. coli DH10B(pBAD-tetK), expressing tet(K). Briefly: MIC against recombinant E. coli expressing tet(K). Type of assay: cell-based. As to conditions: for MIC: Escherichia coli; for MIC ratio, TetK induced to uninduced: ratio of TetK induced to uninduced MIC; for Effect of expression of (tet)K on activity: result in words. The text has this:
(§1) Constructs were transformed into E. coli DH10B for expression. Recombinant strains were pre-induced under optimized conditions with L-arabinose prior to use as inocula in CLSI standardized MIC assays.

The subject of assay [2] is E. coli DH10B(pBAD-tetM), expressing tet(M). Put plainly: MIC against recombinant E. coli expressing tet(M). It is filed as cell-based. The note with it: for MIC: Escherichia coli; for Ratio (TetM induced / Uninduced): ratio of MICs; for Effect of expression of (tet)M on activity: result in words.
Description: as §1

Assay [3] deals with E. coli S30 extract system, coupled in vitro transcription/translation, firefly luciferase readout. Put plainly: In vitro transcription/translation (TnT) assay. It is filed as biochemical. The note with it: for IC50, in vitro transcription/translation system: E. coli S30 extract, luciferase readout.
Assay [4] deals with Staphylococcus aureus SA101, ATCC 29213, MSSA. Briefly: MIC assay, SA101. As to conditions: Table 8, read-out: MIC S. aureus ATCC 29213. Type of assay: cell-based.
Assay [5] concerns Staphylococcus aureus SA161, HA-MRSA, tetracycline-resistant, tet(M). Put plainly: MIC assay, SA161. It is filed as cell-based. The note with it: Table 8, read-out: MIC S. aureus MRSA, tetM.
The subject of assay [6] is Staphylococcus aureus SA158, tetracycline-resistant tet(K). Put plainly: MIC assay, SA158. It is filed as cell-based. The note with it: Table 8, read-out: MIC S. aureus tetK.
Assay [7] concerns Enterococcus faecalis EF103, ATCC 29212. Briefly: MIC assay, EF103. Type of assay: cell-based. As to conditions: Enterococcus faecalis, ATCC29212; Table 8; read-out: MIC E. faecalis ATCC 29212.
In assay [8] the test system is Enterococcus faecalis EF159, tetracycline-resistant, tet(M). Briefly: MIC assay, EF159. As to conditions: Table 8, read-out: MIC E. faecalis tetM. It is filed as cell-based.
The test system of assay [9] is Streptococcus pneumoniae SP106, ATCC 49619. Put plainly: MIC assay, SP106. It is filed as cell-based. The note with it: ATCC49619, Table 8, read-out: MIC S. pneumoniae ATCC 49619.
Assay [10] deals with Streptococcus pneumoniae SP160, tetracycline-resistant, tet(M). Put plainly: MIC assay, SP160. It is filed as cell-based. As to conditions: Table 8, read-out: MIC S. pneumoniae tetM.
In assay [11] the test system is Escherichia coli EC107, ATCC 25922. Briefly: MIC assay, EC107. It is filed as cell-based. As to conditions: ATCC25922, Table 8, read-out: MIC E. coli ATCC 25922.
Assay [12] concerns Escherichia coli EC155, tetracycline-resistant, tet(A). Briefly: MIC assay, EC155. The note with it: Table 8, read-out: MIC E. coli tetA. Type of assay: cell-based.
Assay [13] has as its system E. faecalis clinical isolates. Put plainly: MIC50, MIC90 and MIC range, panel of clinical isolates (Example 20). It is filed as cell-based. As to conditions: 24 isolates, in µg/mL. The protocol:
(§2) The assays were run as follows.
(§3) Both values, as well as the MIC range (the lowest and highest MIC value observed for a collection of organisms), were determined for the isolates listed in Table 3.

Assay [14] deals with S. aureus clinical isolates. The assay is described as above. Type of assay: cell-based. The note with it: MRSA, 30 isolates; in µg/mL. The protocol: as §2, §3
Assay [15] has as its system S. pneumoniae clinical isolates. The description is as above. It is filed as cell-based. The note with it: 19 isolates, in µg/mL. The protocol:
as §2, §3

Converted amounts (≈) assume the structure as drawn. Like-named read-outs stand apart in the source and are kept apart here. Bounds are passed on as bounds.

On to `NCC[C@H](O)C(=O)N[C@@H]1C[C@H](N)[C@@H](O[C@H]2O[C@H](CN)[C@@H](O)[C@H](O)[C@H]2O)[C@H](O)[C@H]1O[C@H]1O[C@H](CO)[C@@H](O)[C@H](N)[C@H]1O` [Amikacin, amikacin, reference compound], for which the MIC in assay [1] (read-out: MIC, TetK Induced) worked out at 8 mg/L; in assay [1] (read-out: MIC, Uninduced), 8 mg/L; in [2] (read-out: MIC, TetM induced) it was 4 mg/L; in assay [2] (read-out: MIC, Uninduced), 4 mg/L. For the same molecule, the “MIC ratio, TetK induced to uninduced” value in [1] is 1. Further, the “Effect of expression of (tet)K on activity” value in assay [1] is on record as “unaffected”. Moreover, the “Ratio (TetM induced / Uninduced)” value in assay [2] is 1. In assay [2], the “Effect of expression of (tet)M on activity” value is “unaffected”.
As to `CO/N=C(\C(=O)N[C@@H]1C(=O)N2C(C(=O)O)=C(CSc3nc(=O)c(=O)[nH]n3C)CS[C@H]12)c1csc(N)n1` [Ceftriaxone, ceftriaxone, reference compound], the MIC turned out to be 0.25 mg/L in assay [1] (read-out: MIC, TetK Induced); 0.125 mg/L in assay [1] (read-out: MIC, Uninduced); 0.125 mg/L in [2] (read-out: MIC, TetM induced); 0.0625 mg/L in [2] (read-out: MIC, Uninduced). Besides, the “MIC ratio, TetK induced to uninduced” value in [1] came out at 2. The “Effect of expression of (tet)K on activity” value in [1] is “unaffected”. Moreover, the “Ratio (TetM induced / Uninduced)” value in assay [2] amounted to 2. In assay [2], the “Effect of expression of (tet)M on activity” value is “unaffected”.
Turning to `CCCc1nc(Cl)c2c(c1O)C(=O)C1=C(O)[C@]3(O)C(=O)C(C(N)=O)=C(O)[C@@H](N(C)C)[C@@H]3C[C@@H]1C2` [Compound 104], the “TnT IC50” value in assay [3] came to 5.3 mg/L.
The same measure, in the same setting: as for `CCCNc1nc(F)c2c(c1O)C(=O)C1=C(O)[C@]3(O)C(=O)C(C(N)=O)=C(O)[C@@H](N(C)C)[C@@H]3C[C@@H]1C2` [Compound 114], the figure is 2.8 mg/L.
In the case of `CN(C)CCCNc1nc(Cl)c2c(c1O)C(=O)C1=C(O)[C@]3(O)C(=O)C(C(N)=O)=C(O)[C@@H](N(C)C)[C@@H]3C[C@@H]1C2` [Compound 119], in assay [3], the “TnT IC50” value is 0.58 mg/L and the “IC50, in vitro transcription/translation system” value is “sub-μg/ml”.
Taken in the same sequence, the figures for `CN(C)[C@@H]1C(O)=C(C(N)=O)C(=O)[C@@]2(O)C(O)=C3C(=O)c4c(O)c(NC(=O)CNC(C)(C)C)nc(F)c4C[C@H]3C[C@@H]12` [Compound 120] were 0.36 mg/L and “sub-μg/ml”.
Consider `CN(C)[C@@H]1C(O)=C(C(N)=O)C(=O)[C@@]2(O)C(O)=C3C(=O)c4c(O)cnc(Cl)c4C[C@H]3C[C@@H]12` [Compound 123], for which the MIC is 1 mg/L (≈ 2.22 µM) in assay [4]; 32 mg/L (≈ 71.1 µM) in assay [5]; 32 mg/L (≈ 71.1 µM) in [6]; 32 mg/L (≈ 71.1 µM) in [7]; > 32 mg/L in assay [8]; 1 mg/L (≈ 2.22 µM) in assay [9]. For the same molecule, the MIC in assay [10] was 32 mg/L (≈ 71.1 µM); in assay [11] it was 2 mg/L (≈ 4.45 µM); in [12] it was > 32 mg/L.
`CN(C)[C@@H]1C(O)=C(C(N)=O)C(=O)[C@@]2(O)C(O)=C3C(=O)c4c(O)c(NCC(F)(F)F)nc(Cl)c4C[C@H]3C[C@@H]12` [Compound 124]: the “MIC Range” value in assay [13] is reported as 0.008-4; in assay [14] it was 0.25-4; in [15] it was “<=0.016-8”. For the same molecule, the MIC in assay [1] (read-out: MIC, TetK Induced) is 16 mg/L; in [1] (read-out: MIC, Uninduced), 8 mg/L; in assay [2] (read-out: MIC, TetM induced), 16 mg/L; in [2] (read-out: MIC, Uninduced) it was 4 mg/L. Moreover, the “MIC ratio, TetK induced to uninduced” value in assay [1] was 2. For the same molecule, the “Ratio (TetM induced / Uninduced)” value in assay [2] is 4. In addition, the “TnT IC50” value in [3] was >4.5 mg/L.
For `CN(C)[C@@H]1C(O)=C(C(N)=O)C(=O)[C@@]2(O)C(O)=C3C(=O)c4c(O)c(N)nc(F)c4C[C@H]3C[C@@H]12` [Compound 125], in assay [3], the “TnT IC50” value is 0.93 mg/L and the “IC50, in vitro transcription/translation system” value was “sub-μg/ml”.
Taken in the same sequence, the figures for `CN(C)[C@@H]1C(O)=C(C(N)=O)C(=O)[C@@]2(O)C(O)=C3C(=O)c4c(O)c(NC(=O)CNC(C)(C)C)nc(Cl)c4C[C@H]3C[C@@H]12` [Compound 132] were 0.78 mg/L and “sub-μg/ml”.
Regarding `CCCc1nc(N(C)C)c2c(c1O)C(=O)C1=C(O)[C@]3(O)C(=O)C(C(N)=O)=C(O)[C@@H](N(C)C)[C@@H]3C[C@@H]1C2` [Compound 141], the “MIC Range” value in assay [13] is given as 1-8; in [14], 2-4; in [15], 0.25-8. Further, the minimum inhibitory concentration (MIC) in assay [1] (read-out: MIC, TetK Induced) is 32 mg/L; in [1] (read-out: MIC, Uninduced), > 32 mg/L; in assay [2] (read-out: MIC, TetM induced), 32 mg/L; in assay [2] (read-out: MIC, Uninduced), 32 mg/L. For the same molecule, in [2], the “Ratio (TetM induced / Uninduced)” value came to 1.
With `CN(C)[C@@H]1C(O)=C(C(N)=O)C(=O)[C@@]2(O)C(O)=C3C(=O)c4c(O)cnc(F)c4C[C@H]3C[C@@H]12` [Compound 144], the MIC in assay [4] was 0.031 mg/L (≈ 0.0715 µM); in assay [5], 8 mg/L (≈ 18.5 µM); in [6], 8 mg/L (≈ 18.5 µM); in [7], 4 mg/L (≈ 9.23 µM); in [8], 32 mg/L (≈ 73.8 µM); in [9], 0.016 mg/L (≈ 0.0369 µM). The MIC in assay [10] was 8 mg/L (≈ 18.5 µM); in assay [11], 0.25 mg/L (≈ 0.577 µM); in assay [12] it was > 32 mg/L.
Turning to `CN(C)[C@@H]1C(O)=C(C(N)=O)C(=O)[C@@]2(O)C(O)=C3C(=O)c4c(O)c(N)nc(Cl)c4C[C@H]3C[C@@H]12` [Compound 147], in [3], the “TnT IC50” value was 1.1 mg/L.
For `C[C@H]1COc2c(N3CCN(C)CC3)c(F)cc3c(=O)c(C(=O)O)cn1c23` [Levofloxacine, levofloxacin, reference compound], the MIC came to 0.0156 mg/L in assay [1] (read-out: MIC, TetK Induced); 0.0156 mg/L in assay [1] (read-out: MIC, Uninduced); 0.0156 mg/L in assay [2] (read-out: MIC, TetM induced); 0.0156 mg/L in assay [2] (read-out: MIC, Uninduced). The “MIC ratio, TetK induced to uninduced” value in assay [1] was 1. Besides, the “Ratio (TetM induced / Uninduced)” value in assay [2] was found to be 1.
Take `CN(C)c1ccc(O)c2c1C[C@H]1C[C@H]3[C@H](N(C)C)C(O)=C(C(N)=O)C(=O)[C@@]3(O)C(O)=C1C2=O` [minocycline, reference compound]: the MIC in [4] is 0.06 mg/L (≈ 0.131 µM); in assay [5] it was 8 mg/L (≈ 17.5 µM); in assay [6], 0.03 mg/L (≈ 0.0656 µM); in [8] it was 16 mg/L (≈ 35 µM); in [9], ≤ 0.016 mg/L; in assay [10], 2 mg/L (≈ 4.37 µM). Also, the MIC in assay [11] was found to be 0.5 mg/L (≈ 1.09 µM); in [12] it was 8 mg/L (≈ 17.5 µM).

For orientation: MIC means the lowest concentration that inhibits growth of the organism.
